Results from ChEMBL document CHEMBL1126406, “Novel oxathiazinones as gastrin ligands : Unexpected preducts from the schotten-baumann reaction of arylsulphonyl chlorides with derivatives of aspartic acid” (1992).

Legend:
Mus musculus [1] = species on record: Mus musculus; test: Evaluated for the Log A50 value in the isolated mouse stomach assay; assay type: functional
Mus musculus [2] = species on record: Mus musculus; test: The compound was evaluated for the percentage of pentagastrin control in the isolated mouse stomach assay; assay type: functional

Structure (SMILES) | Log A50 (Mus musculus [1]) | Control (Mus musculus [2]) [%]
NC(=O)C(Cc1ccccc1)NC(=O)[C@H](CC(=O)O)NS(=O)(=O)c1ccc2ccccc2c1 (stereo partly specified) | -5.6 | 96
Cc1ccc(S2(=O)=N[C@H](C(=O)NC(Cc3ccccc3)C(N)=O)CC(=O)O2)cc1 (stereo partly specified) | -5.3 | 56
NC(=O)C(Cc1ccccc1)NC(=O)[C@@H]1CC(=O)OS(=O)(c2ccc3ccccc3c2)=N1 (stereo partly specified) | -8.1 | 67
